Data published in patent US10508085B2, “Compounds and methods for IDO and TDO modulation, and indications therefor” (Plexxikon Inc., priority 2016, dated 2019).

Legend:
[1] = target: T1, human TDO (TDO-expressing HEK293 cells) (Homo sapiens, UniProt P48775); assay: Cell based kynurenine assay, TDO-expressing HEK293 cell clones; settings: TDO-expressing HEK293 cells, 24 hours, geometric mean; read-out: HEK293 TDO Kynurenine GMean IC50 (μM) (Cellular Assay)
T1 construct: expressed in transfected cells
T1 sequence (P48775 whole entry): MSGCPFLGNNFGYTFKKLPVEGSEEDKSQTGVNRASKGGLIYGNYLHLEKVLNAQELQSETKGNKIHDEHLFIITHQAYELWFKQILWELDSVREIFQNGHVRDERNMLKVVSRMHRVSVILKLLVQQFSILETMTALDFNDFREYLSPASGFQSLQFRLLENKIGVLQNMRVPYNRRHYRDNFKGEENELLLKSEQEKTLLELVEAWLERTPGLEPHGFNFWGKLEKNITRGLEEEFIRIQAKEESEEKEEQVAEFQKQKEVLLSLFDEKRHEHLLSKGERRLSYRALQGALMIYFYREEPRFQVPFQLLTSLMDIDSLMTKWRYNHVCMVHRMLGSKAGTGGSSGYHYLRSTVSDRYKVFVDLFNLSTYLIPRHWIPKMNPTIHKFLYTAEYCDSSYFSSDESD
How it was run: (§1)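 Kynurenine in culture supernatant read after 24 h compound exposure of HEK293 cells stably expressing human IDO1 or TDO. IC50 from nonlinear regression of % inhibition relative to 0.2% DMSO cell (high) and media-only (low) controls.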

[2] = target: T2, human IDO (IDO1-expressing HEK293 cells) (Homo sapiens, UniProt P14902); assay: Cell based kynurenine assay, IDO1-expressing HEK293 cell clones; settings: IDO1-expressing HEK293 cells, 24 hours, geometric mean; read-out: HEK293 IDO1 Kynurenine GMean IC50 (μM) (Cellular Assay)
T2 construct: expressed in transfected cells
T2 sequence (P14902 whole entry): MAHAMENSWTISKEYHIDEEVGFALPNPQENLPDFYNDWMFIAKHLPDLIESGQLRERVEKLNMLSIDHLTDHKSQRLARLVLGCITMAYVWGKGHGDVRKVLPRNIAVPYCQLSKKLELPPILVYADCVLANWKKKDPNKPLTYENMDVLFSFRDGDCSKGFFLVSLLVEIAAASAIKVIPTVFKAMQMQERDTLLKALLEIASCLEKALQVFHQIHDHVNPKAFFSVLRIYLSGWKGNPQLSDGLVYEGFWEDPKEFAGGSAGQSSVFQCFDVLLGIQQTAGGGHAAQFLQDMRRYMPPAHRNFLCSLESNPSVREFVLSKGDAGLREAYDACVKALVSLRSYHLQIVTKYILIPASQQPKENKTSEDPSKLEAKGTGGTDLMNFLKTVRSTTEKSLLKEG
How it was run: as §1

[3] = target: T3, Human Indoleamine 2,3-dioxygenase (IDO) (Homo sapiens, UniProt P14902); assay: Human IDO enzymatic assay (kynurenine level); format: biochemical; settings: 6 nM IDO, 10 μM L-Trp; geometric mean; read-out: IDO1 GMean: IC50 (μM) (Biochemical Assay)
T3 construct: His tag (N); made in house; host or cells: E. coli
T3 sequence (P14902 whole entry): as above
How it was run: (§2)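 Reactions were stopped with TCA, converting N-formylkynurenine to kynurenine for quantitation, with IC50 by nonlinear regression. IDO: 6 nM enzyme, 10 μM L-Trp, 20 min RT. TDO: 1 nM enzyme, 350 μM L-Trp, 70 min RT, both in pH 6.5 buffer.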

[4] = target: T4, Human Tryptophan 2,3-dioxygenase (TDO) (Homo sapiens, UniProt P48775); assay: Human TDO enzymatic assay (kynurenine level); format: biochemical; settings: 1 nM TDO, 350 μM L-Trp; geometric mean; read-out: TDO GMean: IC50 (μM) (Biochemical Assay)
T4 construct: His tag (N); made in house; host or cells: E. coli
T4 sequence (P48775 whole entry): as the sequence (P48775 whole entry) above
How it was run: as §2

| Structure (SMILES) | IC50 [1] [µM] | IC50 [2] [µM] | IC50 [3] [µM] | IC50 [4] [µM] |
| --- | --- | --- | --- | --- |
| CC(C)(C1CCN(C(=O)NCCS(C)(=O)=O)CC1)C(O)c1cc(Cl)cc2cn[nH]c12 (centres unmarked) [Compound P-0452, 4-(1-(5-chloro-1H-indazol-7-yl)-1-hydroxy-2-methylpropan-2-yl)-N-(2-(methylsulfonyl)ethyl)piperidine-1-carboxamide] | 0.0001 to 10 | 0.0001 to 10 | 0.0001 to 10 | 0.0001 to 10 |
| CN(C)CCC(=O)N1CCC(C(C)(C)C(O)c2cc(Cl)cc3cn[nH]c23)CC1 (centres unmarked) [Compound P-0456, 1-(4-(1-(5-chloro-1H-indazol-7-yl)-1-hydroxy-2-methylpropan-2-yl)piperidin-1-yl)-3-(dimethylamino) propan-1-one] | 0.0001 to 10 | 0.0001 to 10 | 0.0001 to 10 | 0.0001 to 10 |
| CC(C)(C1CCN(C(=O)CC(F)(F)F)CC1)C(O)c1cc(Cl)cc2cn[nH]c12 (centres unmarked) [Compound P-0459, 1-(4-(1-(5-chloro-1H-indazol-7-yl)-1-hydroxy-2-methylpropan-2-yl)piperidin-1-yl)-3,3,3-trifluoropropan-1-one] | 0.0001 to 10 | 0.0001 to 10 | 0.0001 to 10 | 0.0001 to 10 |
| O=C(NCC1(O)CC1)N1CCC(C(F)(F)C(O)c2cc(Cl)cc3cn[nH]c23)CC1 (centres unmarked) [Compound P-0465, 4-(2-(5-chloro-1H-indazol-7-yl)-1,1-difluoro-2-hydroxyethyl)-N-((1-hydroxycyclopropyl)methyl)piperidine-1-carboxamide] | 0.0001 to 10 | 0.0001 to 10 | 0.0001 to 10 | 0.0001 to 10 |
| CC(C)(O)CNC(=O)N1CCC(C(F)(F)C(O)c2cc(Cl)cc3cn[nH]c23)CC1 (centres unmarked) [Compound P-0466, 4-(2-(5-chloro-1H-indazol-7-yl)-1,1-difluoro-2-hydroxyethyl)-N-(2-hydroxy-2-methylpropyl) piperidine-1-carboxamide] | 0.0001 to 10 | 0.0001 to 10 | 0.0001 to 10 | 0.0001 to 10 |
| O=C(NCC1CCS(=O)(=O)CC1)N1CCC(C(F)(F)C(O)c2cc(Cl)cc3cn[nH]c23)CC1 (centres unmarked) [Compound P-0467, 4-(2-(5-chloro-1H-indazol-7-yl)-1,1-difluoro-2-hydroxyethyl)-N-((1,1-dioxidotetrahydro-2H-thiopyran-4-yl)methyl)piperidine-1-carboxamide] | > 10 | 0.0001 to 10 | 0.0001 to 10 | 0.0001 to 10 |
| O=C(NCC1CCOCC1)N1CCC(C(F)(F)C(O)c2cc(Cl)cc3cn[nH]c23)CC1 (centres unmarked) [Compound P-0468, 4-(2-(5-chloro-1H-indazol-7-yl)-1,1-difluoro-2-hydroxyethyl)-N-((tetrahydro-2H-pyran-4-yl)methyl)piperidine-1-carboxamide] | 0.0001 to 10 | 0.0001 to 10 | 0.0001 to 10 | 0.0001 to 10 |
| CC(C)(C)OC(=O)N1CCC(C(F)(F)C(O)c2cc(Cl)cc3cn[nH]c23)CC1 (centres unmarked) [Compound P-0469, tert-butyl 4-(2-(5-chloro-1H-indazol-7-yl)-1,1-difluoro-2-hydroxyethyl) piperidine-1-carboxylate] | 0.0001 to 10 | 0.0001 to 10 | 0.0001 to 10 | 0.0001 to 10 |
| CC(C)(C1CCN(C(=O)Nc2cccs2)CC1)C(O)c1cc(Cl)cc2cn[nH]c12 (centres unmarked) [Compound P-0470, 4-(1-(5-chloro-1H-indazol-7-yl)-1-hydroxy-2-methylpropan-2-yl)-N-(thiophen-2-yl)piperidine-1-carboxamide] | 0.0001 to 10 | 0.0001 to 10 | 0.0001 to 10 | 0.0001 to 10 |

Now from value to compound:

| IC50 [1] [µM] | IC50 [2] [µM] | IC50 [3] [µM] | IC50 [4] [µM] | Structure (SMILES) |
| --- | --- | --- | --- | --- |
| 0.0001 to 10 | 0.0001 to 10 | 0.0001 to 10 | 0.0001 to 10 | CC(C)(C1CCN(C(=O)N[C@H]2CC[C@H](C)CC2)CC1)C(O)c1cc(Cl)cc2cn[nH]c12 (some centres unmarked) [Compound P-0449, 4-(1-(5-chloro-1H-indazol-7-yl)-1-hydroxy-2-methylpropan-2-yl)-N-((1r,4r)-4-methylcyclohexyl) piperidine-1-carboxamide] |
| 0.0001 to 10 | 0.0001 to 10 | 0.0001 to 10 | 0.0001 to 10 | CC(C)(C1CCN(C(=O)NC2CCN(S(C)(=O)=O)CC2)CC1)C(O)c1cc(Cl)cc2cn[nH]c12 (centres unmarked) [Compound P-0450, 4-(1-(5-chloro-1H-indazol-7-yl)-1-hydroxy-2-methylpropan-2-yl)-N-(1-(methylsulfonyl)piperidin-4-yl)piperidine-1-carboxamide] |
| 0.0001 to 10 | 0.0001 to 10 | 0.0001 to 10 | 0.0001 to 10 | CC(C)(C1CCN(C(=O)NC2CCOCC2)CC1)C(O)c1cc(Cl)cc2cn[nH]c12 (centres unmarked) [Compound P-0451, 4-(1-(5-chloro-1H-indazol-7-yl)-1-hydroxy-2-methylpropan-2-yl)-N-(tetrahydro-2H-pyran-4-yl)piperidine-1-carboxamide] |
| > 10 | > 10 | 0.0001 to 10 | 0.0001 to 10 | CC(C)(C1CCN(C(=O)NC2CCNCC2)CC1)C(O)c1cc(Cl)cc2cn[nH]c12 (centres unmarked) [Compound P-0453, 4-(1-(5-chloro-1H-indazol-7-yl)-1-hydroxy-2-methylpropan-2-yl)-N-(piperidin-4-yl)piperidine-1-carboxamide] |
| 0.0001 to 10 | 0.0001 to 10 | 0.0001 to 10 | 0.0001 to 10 | CC(C)(C1CCN(C(=O)CC#N)CC1)C(O)c1cc(Cl)cc2cn[nH]c12 (centres unmarked) [Compound P-0454, 3-(4-(1-(5-chloro-1H-indazol-7-yl)-1-hydroxy-2-methylpropan-2-yl)piperidin-1-yl)-3-oxopropanenitrile] |
| 0.0001 to 10 | 0.0001 to 10 | 0.0001 to 10 | 0.0001 to 10 | CN(C)CC(=O)N1CCC(C(C)(C)C(O)c2cc(Cl)cc3cn[nH]c23)CC1 (centres unmarked) [Compound P-0455, 1-(4-(1-(5-chloro-1H-indazol-7-yl)-1-hydroxy-2-methylpropan-2-yl)piperidin-1-yl)-2-(dimethylamino) ethan-1-one] |
| 0.0001 to 10 | 0.0001 to 10 | 0.0001 to 10 | 0.0001 to 10 | CC1(C(=O)N2CCC(C(C)(C)C(O)c3cc(Cl)cc4cn[nH]c34)CC2)CC1 (centres unmarked) [Compound P-0457, (4-(1-(5-chloro-1H-indazol-7-yl)-1-hydroxy-2-methylpropan-2-yl)piperidin-1-yl)(1-methylcyclopropyl) methanone] |
| 0.0001 to 10 | 0.0001 to 10 | 0.0001 to 10 | 0.0001 to 10 | CC(C)(C1CCN(C(=O)C2CCOCC2)CC1)C(O)c1cc(Cl)cc2cn[nH]c12 (centres unmarked) [Compound P-0458, (4-(1-(5-chloro-1H-indazol-7-yl)-1-hydroxy-2-methylpropan-2-yl)piperidin-1-yl)(tetrahydro-2H-pyran-4-yl)methanone] |
| 0.0001 to 10 | 0.0001 to 10 | 0.0001 to 10 | 0.0001 to 10 | CCCC(=O)N1CCC(C(C)(C)C(O)c2cc(Cl)cc3cn[nH]c23)CC1 (centres unmarked) [Compound P-0460, 1-(4-(1-(5-chloro-1H-indazol-7-yl)-1-hydroxy-2-methylpropan-2-yl)piperidin-1-yl)butan-1-one] |
| 0.0001 to 10 | 0.0001 to 10 | 0.0001 to 10 | 0.0001 to 10 | CC(C)(C1CCN(C(=O)CO)CC1)C(O)c1cc(Cl)cc2cn[nH]c12 (centres unmarked) [Compound P-0461, 1-(4-(1-(5-chloro-1H-indazol-7-yl)-1-hydroxy-2-methylpropan-2-yl)piperidin-1-yl)-2-hydroxyethan-1-one] |
| 0.0001 to 10 | 0.0001 to 10 | 0.0001 to 10 | 0.0001 to 10 | O=C(NC1CCOCC1)N1CCC(C(F)(F)C(O)c2cc(Cl)cc3cn[nH]c23)CC1 (centres unmarked) [Compound P-0462, 4-(2-(5-chloro-1H-indazol-7-yl)-1,1-difluoro-2-hydroxyethyl)-N-(tetrahydro-2H-pyran-4-yl)piperidine-1-carboxamide] |
| > 10 | 0.0001 to 10 | 0.0001 to 10 | 0.0001 to 10 | O=C(NC1CCS(=O)(=O)CC1)N1CCC(C(F)(F)C(O)c2cc(Cl)cc3cn[nH]c23)CC1 (centres unmarked) [Compound P-0463, 4-(2-(5-chloro-1H-indazol-7-yl)-1,1-difluoro-2-hydroxyethyl)-N-(1,1-dioxidotetrahydro-2H-thiopyran-4-yl)piperidine-1-carboxamide] |
| 0.0001 to 10 | 0.0001 to 10 | 0.0001 to 10 | 0.0001 to 10 | O=C(NC1COC1)N1CCC(C(F)(F)C(O)c2cc(Cl)cc3cn[nH]c23)CC1 (centres unmarked) [Compound P-0464, 4-(2-(5-chloro-1H-indazol-7-yl)-1,1-difluoro-2-hydroxyethyl)-N-(oxetan-3-yl)piperidine-1-carboxamide] |
| 0.0001 to 10 | 0.0001 to 10 | 0.0001 to 10 | 0.0001 to 10 | CC(C)(C1CCN(C(=O)NCS(C)(=O)=O)CC1)C(O)c1cc(Cl)cc2cn[nH]c12 (centres unmarked) [Compound P-0471, 4-(1-(5-chloro-1H-indazol-7-yl)-1-hydroxy-2-methylpropan-2-yl)-N-((methylsulfonyl)methyl)piperidine-1-carboxamide] |
